The target in assay [1] is T1, Delta-type opioid receptor (Homo sapiens, UniProt P41143). Put plainly: Agonist activity at human delta opioid receptor expressed in CHO cell membranes by [35S]GTPgammaS binding assay. The assay is classed as functional. For orientation: GTPγS resists hydrolysis and so accumulates on activated G proteins.
In assay [2] the target is Kappa-type opioid receptor (Homo sapiens, UniProt P41145). Put plainly: Displacement of [3H]U69593 from human kappa opioid receptor expressed in CHO cells. The assay is classed as cell-based. For orientation: Displacement assays read how much labelled ligand stays bound in the presence of the test substance.
Kappa-type opioid receptor, sequence (P41145 whole entry): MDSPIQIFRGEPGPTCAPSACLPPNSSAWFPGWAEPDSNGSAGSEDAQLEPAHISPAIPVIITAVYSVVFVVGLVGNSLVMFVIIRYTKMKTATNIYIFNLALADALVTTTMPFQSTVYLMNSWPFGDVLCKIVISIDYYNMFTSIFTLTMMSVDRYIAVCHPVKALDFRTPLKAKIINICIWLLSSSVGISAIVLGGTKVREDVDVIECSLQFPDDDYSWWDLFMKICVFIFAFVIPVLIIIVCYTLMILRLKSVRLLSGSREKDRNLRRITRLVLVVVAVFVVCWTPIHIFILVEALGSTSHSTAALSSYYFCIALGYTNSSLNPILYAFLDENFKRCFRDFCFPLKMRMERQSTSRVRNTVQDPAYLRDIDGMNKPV
Assay [3] concerns the target Mu-type opioid receptor (Homo sapiens, UniProt P35372). Put plainly: Displacement of [3H]DAMGO from human mu opioid receptor expressed in CHO cells. The assay is classed as cell-based.
The target in assay [4] is T1, Delta-type opioid receptor. Description: Agonist activity at human delta opioid receptor expressed in CHO cell membranes by [35S]GTPgammaS binding assay relative to control. The assay is classed as functional.
The species entered for assay [5] is Homo sapiens. Put plainly: Selectivity ratio for Ki for displacement of [3H]DAMGO from human mu opioid receptor expressed in CHO cells to Ki for displacement of [3H]DPDPE from human DOR expressed in CHO cells. The assay is classed as cell-based.
The target in assay [6] is T1, Delta-type opioid receptor. Description: Displacement of [3H]DPDPE from human delta opioid receptor expressed in CHO cells. The assay is classed as cell-based.
The species entered for assay [7] is Homo sapiens. Description: Selectivity ratio for Ki for displacement of [3H]U69593 from human kappa opioid receptor expressed in CHO cells to Ki for displacement of [3H]DPDPE from human DOR expressed in CHO cells. The assay is classed as cell-based.
For assay [8], the target named is T1, Delta-type opioid receptor. Put plainly: Inverse agonist activity at human delta opioid receptor expressed in CHO cell membranes by [35S]GTPgammaS binding assay. The assay is classed as functional.
Assay [9] deals with Mus musculus. Put plainly: Antidepressant activity in sc dosed mouse assessed as increase in climbing count by forced swim test. The assay is classed as functional, organism-based.
For assay [10], the system named is Mus musculus. Put plainly: Antidepressant activity in mouse at 3 mg/kg, sc by forced swim test. The assay is classed as functional, organism-based.
The subject of assay [11] is Mus musculus. Description: Antidepressant activity in sc dosed mouse assessed as increase in total swimming count by forced swim test. The assay is classed as functional, organism-based.
Assay [12] has as its system Mus musculus. Description: Antidepressant activity in sc dosed mouse assessed as decrease in total immobility count by forced swim test. The assay is classed as functional, organism-based.
For assay [13], the system named is Mus musculus. Description: Antidepressant activity in mouse at 10 mg/kg, sc by forced swim tes. The assay is classed as functional, organism-based.

The values that follow come from ChEMBL document CHEMBL4627370, “Discovery of δ opioid receptor full agonists lacking a basic nitrogen atom and their antidepressant-like effects” (Bioorg Med Chem Lett, 2020).

pEC50, pKi: −log10 of the molar value. The source made the active and inactive calls. No cut-off for these calls is given here.

A word on the pEC50: it is the EC50 on a negative log10 scale, so that one unit is a factor of ten. Higher therefore signals a low EC50. For orientation: pKi means the negative decadic logarithm of the Ki, by convention in mol/L. Lower therefore signals a high Ki. For orientation: Emax means the maximal effect, on the per cent scale that the assay sets.

Mu-type opioid receptor, sequence (P35372 whole entry): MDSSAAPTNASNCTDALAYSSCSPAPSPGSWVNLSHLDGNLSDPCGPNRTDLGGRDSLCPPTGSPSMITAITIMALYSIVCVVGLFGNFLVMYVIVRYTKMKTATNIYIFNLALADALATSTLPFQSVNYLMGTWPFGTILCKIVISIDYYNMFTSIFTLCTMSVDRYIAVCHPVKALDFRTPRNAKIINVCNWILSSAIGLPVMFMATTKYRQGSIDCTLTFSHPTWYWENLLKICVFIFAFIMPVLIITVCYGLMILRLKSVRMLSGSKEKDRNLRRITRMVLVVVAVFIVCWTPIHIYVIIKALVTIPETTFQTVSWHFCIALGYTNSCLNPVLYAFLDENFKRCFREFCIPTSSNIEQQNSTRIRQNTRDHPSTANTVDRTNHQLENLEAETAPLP
T1 sequence (P41143 whole entry): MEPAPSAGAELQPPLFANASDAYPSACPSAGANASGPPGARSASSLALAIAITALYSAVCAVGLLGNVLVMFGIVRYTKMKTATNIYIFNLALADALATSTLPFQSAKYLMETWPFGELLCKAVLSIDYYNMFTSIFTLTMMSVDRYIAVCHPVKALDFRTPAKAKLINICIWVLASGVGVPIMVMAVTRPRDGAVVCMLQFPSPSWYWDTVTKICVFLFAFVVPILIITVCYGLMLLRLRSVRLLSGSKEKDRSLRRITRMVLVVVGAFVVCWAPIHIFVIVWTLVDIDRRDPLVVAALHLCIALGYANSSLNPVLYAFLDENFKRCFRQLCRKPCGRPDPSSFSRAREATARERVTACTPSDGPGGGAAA

The compound `O=C(Cc1ccccc1)N1CC[C@]23c4c5ccc(O)c4O[C@H]2c2[nH]c4ccccc4c2C[C@@]3(O)[C@H]1C5` gave a negative logarithm of the EC50 (pEC50) in [1] of 6.88. In addition, the values for the negative-log Ki (pKi) in assay [2], in [3] and in assay [6] were 5.22, 5.06 and 7.38, respectively. The compound also registered a maximal effect (Emax) in [4] of 97.5%. Further, the Ratio Ki in [5] came out at 209; in assay [7], 144.

For the compound `COC1=CC=C2C[C@H]3N(C(=O)C4CC4)CC[C@]45C2C1O[C@H]4c1[nH]c2ccccc2c1C[C@@]35O` (stereo partly specified), in assay [8], the pEC50 is 6.49.

Consider `O=C(Cc1ccccc1)N1CC[C@]23Cc4nc5ccccc5cc4C[C@@]2(O)[C@H]1Cc1ccc(O)cc13`, for which the negative logarithm of the EC50 (pEC50) in assay [1] is 7.84. In addition, the Activity entry in assay [9], in [11] and in assay [12] was “Dose-dependent effect” each time. In [10], the result was Active. The same compound gave an Emax in assay [4] of 125%. This compound showed a pKi in assay [6] of 7.58.

In assay [1], `O=C(CCc1ccccc1)N1CC[C@]23c4c5ccc(O)c4O[C@H]2c2[nH]c4ccccc4c2C[C@@]3(O)[C@H]1C5` showed a pEC50 of 6.90. The pKi in assay [2] was 5.67; in assay [3], 5.46; in assay [6], 7.05. In assay [4], the maximal response (Emax) is 88.5%. In addition, the Ratio Ki in assay [5] came out at 39.2; in [7], 24.2.

Regarding `CN1CC[C@]23Cc4nc5ccccc5cc4C[C@@]2(O)[C@H]1Cc1ccc(O)cc13`, the result in assay [13] was Active. For the same compound, the Activity entry in [9], in assay [11] and in assay [12] was “Dose-dependent effect” in each case.

On to `O=C(CCc1ccccc1)N1CC[C@]23Cc4nc5ccccc5cc4C[C@@]2(O)[C@H]1Cc1ccc(O)cc13`, for which the pEC50 in assay [1] was 7.98. Also, the negative-log Ki (pKi) was 5.75 in assay [3] and 8.38 in assay [6]. The same compound registered a maximal response (Emax) in [4] of 123%. Further, in assay [5], the Ratio Ki worked out at 430.
